# Data as given in patent publication US12624018B1, “Inhibitors of RIPK2 and medical uses thereof” (Odyssey Therapeutics, Inc., priority 2022, dated 2026).
# Target: T1, RIPK2 enzyme (Homo sapiens, UniProt O43353)
# T1 construct: purchased Carna 09-128
# Experiment: RIPK2 inhibition (ADP-Glo Kinase Assay)
# Assay type: biochemical
# Conditions: RIPK2 5 nM, ATP 150 μM, MBP substrate, read-out: RIPK2 IC50
# In short: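 Swine MBP substrate; compound and 5 nM RIPK2 first mixed for 30 min at room temperature; buffer pH 7.5 HEPES 50 mM with 10 mM MgCl2, 2 mM DTT, 1 mM EGTA, Brij-35, BSA.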
# T1 sequence (O43353 1-299 limits assumed): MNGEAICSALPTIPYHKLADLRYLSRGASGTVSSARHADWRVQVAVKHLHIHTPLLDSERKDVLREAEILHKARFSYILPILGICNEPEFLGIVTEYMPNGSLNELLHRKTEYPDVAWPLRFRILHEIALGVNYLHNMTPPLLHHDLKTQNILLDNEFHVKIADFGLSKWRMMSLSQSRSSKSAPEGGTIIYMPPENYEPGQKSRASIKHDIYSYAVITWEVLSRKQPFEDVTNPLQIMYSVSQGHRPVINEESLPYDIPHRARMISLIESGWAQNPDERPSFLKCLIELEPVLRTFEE
row,Structure (SMILES),IC50 [nM]
1,"Cc1c(Oc2ccnc3ccc(S(=O)(=O)C4CCC4)cc23)ccc(CC(=O)Nc2cnn(C(C)(C)C)c2)c1F [Compound 284, N-(1-(tert-butyl)-1H-pyrazol-4-yl)-2-(4-((6-(cyclobutylsulfonyl)quinolin-4-yl)oxy)-2-fluoro-3-methylphenyl)acetamide]",< 2.5
2,"CN(C)C(=O)c1ccc2ncnc(Oc3ccc(CC(=O)Nc4cnn(C(C)(C)C)c4)c(F)c3)c2c1 [Compound 26, 4-(4-(2-((1-(tert-butyl)-1H-pyrazol-4-yl)amino)-2-oxoethyl)-3-fluorophenoxy)-N,N-dimethylquinazoline-6-carboxamide]",21
3,"Cc1cc(CC(=O)Nc2cnn(C(C)(C)C)c2)ccc1Oc1ccnc2ccc(S(=O)(=O)C3CCOC3)cc12 (single isomer, unassigned) [Compound 200, N-(1-(tert-butyl)-1H-pyrazol-4-yl)-2-(3-methyl-4-((6-((tetrahydrofuran-3-yl)sulfonyl)quinolin-4-yl)oxy)phenyl)acetamide]",< 2.5
4,"CN1CC[C@H](Oc2ccc3ncnc(Oc4cnc(CC(=O)Nc5cnn(C(C)(C)C)c5)c(F)c4)c3c2)C1 [Compound 59, (S)-N-(1-(tert-butyl)-1H-pyrazol-4-yl)-2-(3-fluoro-5-((6-((1-methylpyrrolidin-3-yl)oxy)quinazolin-4-yl)oxy)pyridin-2-yl)acetamide]",41.5
5,"Cc1cc(CC(=O)Nc2cnn(C(C)(C)C)c2)ccc1Oc1ccnc2ccc(OC3CCNCC3F)cc12 (racemic) [Compound 238, N-(1-(tert-butyl)-1H-pyrazol-4-yl)-2-(4-((6-((-3-fluoro-piperidin-4-yl)oxy)quinolin-4-yl)oxy)-3-methylphenyl) acetamide]",< 2.5
6,"Cc1cc(CC(=O)Nc2cnn(C(C)(C)C)c2)ccc1Oc1ccnc2ccc(S(=O)(=O)C3CCNC3)cc12 (single isomer, unassigned) [Compound 202, N-(1-(tert-butyl)-1H-pyrazol-4-yl)-2-(3-methyl-4-((6-(pyrrolidin-3-ylsulfonyl)quinolin-4-yl)oxy)phenyl)acetamde]",< 2.5
7,"COCCS(=O)(=O)c1ccc2nccc(Oc3ccc(CC(=O)Nc4cnn(C(C)(C)C)c4)cc3C)c2c1 [Compound 204, N-(1-(tert-butyl)-1H-pyrazol-4-yl)-2-(4-((6-((2-methoxyethyl)sulfonyl)quinolin-4-yl)oxy)-3-methylphenyl)acetamide]",< 2.5
8,"Cc1cc(CC(=O)Nc2cnn(C(C)(C)C)c2)ccc1Oc1ccnc2ccc(OCC(=O)O)cc12 [Compound 227, 2-((4-(4-(2-((1-(tert-butyl)-1H-pyrazol-4-yl)amino)-2-oxoethyl)-2-methyl-phenoxy)quinolin-6-yl)oxy)acetic acid]",< 2.5
9,"[2H]C([2H])([2H])c1cc(CC(=O)Nc2cnn(C(C)(C)C)c2)ccc1Oc1ccnc2ccc(S(C)(=O)=O)cc12 [Compound 93, N-(1-(tert-butyl)-1H-pyrazol-4-yl)-2-(3-(methyl-d3)-4-((6-(methylsulfonyl)quinolin-4-yl)oxy)phenyl)acetamide]",< 2.5
10,"Cc1cc(CC(=O)Nc2cnn(C(C)(C)C)c2)c(F)cc1Oc1ccnc2ccc(C(=O)N3CCNCC3)cc12 [Compound 379, N-(1-(tert-butyl)-1H-pyrazol-4-yl)-2-(2-fluoro-5-methyl-4-((6-(piperazine-1-carbonyl)quinolin-4-yl)oxy)phenyl) acetamide]",< 2.5
11,"Cc1cc(CC(=O)Nc2cnn(C(C)(C)C)c2)ccc1Oc1ccnc2ccc(S(=O)(=O)C3CCC3)cc12 [Compound 280, N-(1-(tert-butyl)-1H-pyrazol-4-yl)-2-(4-((6-(cyclobutylsulfonyl)quinolin-4-yl)oxy)-3-methylphenyl)acetamide]",< 2.5
12,"Cc1cc(CC(=O)Nc2cnn(C(C)(C)C)c2)c(F)cc1Oc1ccnc2ccc(C(=O)N3C[C@H]4C[C@@H]3CN4)cc12 [Compound 453, 2-(4-((6-((1R,4R)-2,5-diazabicyclo[2.2.1]heptane-2-carbonyl)quinolin-4-yl)oxy)-2-fluoro-5-methylphenyl)-N-(1-(tert-butyl)-1H-pyrazol-4-yl)acetamide]",< 2.5
13,"Cc1cc(CC(=O)Nc2cnn(C(C)(C)C)c2)c(F)cc1Oc1ncnc2cc(F)c(C(N)=O)cc12 [Compound 438, 4-(4-(2-((1-(tert-butyl)-1H-pyrazol-4-yl)amino)-2-oxoethyl)-5-fluoro-2-methylphenoxy)-7-fluoroquinazoline-6-carboxamide]",3.5
14,"Cc1cc(CC(=O)Nc2cnn(C(C)(C)C)c2)ccc1Oc1ccnc2cc(OC(F)F)c(S(C)(=O)=O)cc12 [Compound 218, N-(1-(tert-butyl)-1H-pyrazol-4-yl)-2-(4-((7-(difluoromethoxy)-6-(methylsulfonyl)quinolin-4-yl)oxy)-3-methylphenyl) acetamide]",< 2.5
15,"Cc1cc(CC(=O)Nc2cnn(C(C)(C)C)c2)cc(C)c1Oc1ccnc2ccc(S(C)(=O)=O)cc12 [Compound 445, N-(1-(tert-butyl)-1H-pyrazol-4-yl)-2-(3,5-dimethyl-4-((6-(methylsulfonyl)quinolin-4-yl)oxy)phenyl)acetamide]",< 2.5
16,"Cc1cc(CC(=O)Nc2cnn(C(C)(C)C)c2)c(F)cc1Oc1ccnc2ccc(C(=O)N3CC4(COC4)C3)cc12 [Compound 372, 2-(4-((6-(2-oxa-6-azaspiro[3.3]heptane-6-carbonyl)quinolin-4-yl)oxy)-2-fluoro-5-methyl-phenyl)-N-(1-(tert-butyl)-1H-pyrazol-4-yl)acetamide]",< 2.5
17,"Cc1cc(CC(=O)Nc2cnn(C(C)(C)C)c2)ccc1Oc1ccnc2cc(OCC(F)(F)F)c(S(C)(=O)=O)cc12 [Compound 219, N-(1-(tert-butyl)-1H-pyrazol-4-yl)-2-(3-methyl-4-((6-(methylsulfonyl)-7-(2,2,2-trifluoroethoxy)quinolin-4-yl)oxy)phenyl)acetamide]",< 2.5
18,"CC(=O)N1CCC(Oc2ccc3nccc(Oc4cnc(CC(=O)Nc5cnn(C(C)(C)C)c5)c(F)c4)c3c2)CC1 [Compound 150, 2-(5-((6-((1-acetylpiperidin-4-yl)oxy)quinolin-4-yl)oxy)-3-fluoropyridin-2-yl)-N-(1-(tert-butyl)-1H-pyrazol-4-yl)acetamide]",4.1
19,"COc1ccc2ncnc(Oc3ccc(CC(=O)Nc4cc(C(C)(C)CO)[nH]n4)c(F)c3)c2c1 [Compound 15, 2-(2-fluoro-4-((6-methoxy-quinazolin-4-yl)oxy)phenyl)-N-(5-(1-hydroxy-2-methylpropan-2-yl)-1H-pyrazol-3-yl)acetamide]",34.9
20,"Cc1c(Oc2ccnc3ccc(C(=O)NC4CC(C#N)C4)cc23)ccc(CC(=O)Nc2cnn(C(C)(C)C)c2)c1F (single isomer, unassigned) [Compound 403, 4-(4-(2-((1-(tert-butyl)-1H-pyrazol-4-yl)amino)-2-oxoethyl)-3-fluoro-2-methyl-phenoxy)-N-(-3-cyano-cyclobutyl) quinoline-6-carboxamide]",< 2.5
21,"Cc1cc(CC(=O)Nc2cnn(C(C)(C)C)c2)c(F)cc1Oc1ccnc2ccc(S(=O)(=O)C3CCNCC3)cc12 [Compound 313, N-(1-(tert-butyl)-1H-pyrazol-4-yl)-2-(2-fluoro-5-methyl-4-((6-(piperidin-4-ylsulfonyl)quinolin-4-yl)oxy)phenyl)acetamide]",< 2.5
22,"Cc1cc(CC(=O)Nc2cc(C(C)(C)C)n[nH]2)ccc1Oc1ccnc2ccc(S(C)(=N)=O)cc12 (centres unmarked) [Compound 88, N-(5-(tert-butyl)-1H-pyrazol-3-yl)-2-(3-methyl-4-((6-(S-methylsulfonimidoyl)quinolin-4-yl)oxy)phenyl)acetamide]",< 2.5
23,"CC(C)(C)c1cc(NC(=O)Cc2ccc(Oc3ccnc4ccc(OC5CCNCC5)cc34)cc2F)n[nH]1 [Compound 137, N-(5-(tert-butyl)-1H-pyrazol-3-yl)-2-(2-fluoro-4-((6-(piperidin-4-yloxy)quinolin-4-yl)oxy)phenyl) acetamide]",< 2.5
24,"CC(C)(C)n1cc(NC(=O)Cc2ccc(Oc3ccnc4ccc(OC5CCNCC5)cc34)c(F)c2)cn1 [Compound 161, N-(1-(tert-butyl)-1H-pyrazol-4-yl)-2-(3-fluoro-4-((6-(piperidin-4-yloxy)quinolin-4-yl)oxy)phenyl) acetamide]",< 2.5
25,"CC(C)(C)n1cc(NC(=O)Cc2ccc(Oc3ccnc4ccc(S(C)(=N)=O)cc34)cc2F)cn1 (single isomer, unassigned) [Compound 70, N-(1-(tert-butyl)-1H-pyrazol-4-yl)-2-(2-fluoro-4-((6-(S-methylsulfonimidoyl)quinolin-4-yl)oxy)phenyl)acetamide]",5.1
26,"COc1ccc2nccc(Oc3cnc(CC(=O)Nc4cnn(C(C)(C)C)c4)c(F)c3)c2c1 [Compound 6, N-(1-(tert-butyl)-1H-pyrazol-4-yl)-2-(3-fluoro-5-((6-methoxyquinolin-4-yl)oxy)pyridin-2-yl)acetamide]",9
27,"CCS(=O)(=O)c1ccc2nccc(Oc3cc(F)c(CC(=O)Nc4cnn(C(C)(C)C)c4)cc3Cl)c2c1 [Compound 430, N-(1-(tert-butyl)-1H-pyrazol-4-yl)-2-(5-chloro-4-((6-(ethylsulfonyl)quinolin-4-yl)oxy)-2-fluorophenyl)acetamide]",< 2.5
28,"Cc1c(Oc2ccnc3ccc(C4CCNC4=O)cc23)ccc(CC(=O)Nc2cnn(C(C)(C)C)c2)c1F (single isomer, unassigned) [Compound 304, N-(1-(tert-butyl)-1H-pyrazol-4-yl)-2-(2-fluoro-3-methyl-4-((6-(2-oxopyrrolidin-3-yl)quinolin-4-yl)oxy)phenyl)acetamide]",< 2.5
29,"Cc1cc(CC(=O)Nc2cnn(C(C)(C)C)c2)ccc1Oc1ccnc2ccc(N3CC(CN)OC3=O)cc12 (single isomer, unassigned) [Compound 320, 2-(4-((6-(5-(aminomethyl)-2-oxooxazolidin-3-yl)quinolin-4-yl)oxy)-3-methylphenyl)-N-(1-(tert-butyl)-1H-pyrazol-4-yl)acetamide]",< 2.5
